From patent US20250263404A1, “AMINOPYRIDINES AS ACTIVATORS OF PI3 KINASE” (UCL Business Ltd, priority 2021, published 2025)

Legend:
Assay type in all cases: biochemical
E545K mutant of p110α = molecular target: T1, E545K mutant of p110α (Homo sapiens, UniProt P42336, E545K); experiment: ADP-Glo kinase assay, oncogenic mutant E545K; conditions: mutant insensitive to pY
T1 construct: Full-length p110α was expressed in a complex with full-length p85α (for biochemistry and HDX-MS); 6xHis followed by TEV protease site (N); made in house; host or cells: Spodoptera frugiperda Sf9 (plasmid OP663)
T1 sequence (P42336 whole entry E545K): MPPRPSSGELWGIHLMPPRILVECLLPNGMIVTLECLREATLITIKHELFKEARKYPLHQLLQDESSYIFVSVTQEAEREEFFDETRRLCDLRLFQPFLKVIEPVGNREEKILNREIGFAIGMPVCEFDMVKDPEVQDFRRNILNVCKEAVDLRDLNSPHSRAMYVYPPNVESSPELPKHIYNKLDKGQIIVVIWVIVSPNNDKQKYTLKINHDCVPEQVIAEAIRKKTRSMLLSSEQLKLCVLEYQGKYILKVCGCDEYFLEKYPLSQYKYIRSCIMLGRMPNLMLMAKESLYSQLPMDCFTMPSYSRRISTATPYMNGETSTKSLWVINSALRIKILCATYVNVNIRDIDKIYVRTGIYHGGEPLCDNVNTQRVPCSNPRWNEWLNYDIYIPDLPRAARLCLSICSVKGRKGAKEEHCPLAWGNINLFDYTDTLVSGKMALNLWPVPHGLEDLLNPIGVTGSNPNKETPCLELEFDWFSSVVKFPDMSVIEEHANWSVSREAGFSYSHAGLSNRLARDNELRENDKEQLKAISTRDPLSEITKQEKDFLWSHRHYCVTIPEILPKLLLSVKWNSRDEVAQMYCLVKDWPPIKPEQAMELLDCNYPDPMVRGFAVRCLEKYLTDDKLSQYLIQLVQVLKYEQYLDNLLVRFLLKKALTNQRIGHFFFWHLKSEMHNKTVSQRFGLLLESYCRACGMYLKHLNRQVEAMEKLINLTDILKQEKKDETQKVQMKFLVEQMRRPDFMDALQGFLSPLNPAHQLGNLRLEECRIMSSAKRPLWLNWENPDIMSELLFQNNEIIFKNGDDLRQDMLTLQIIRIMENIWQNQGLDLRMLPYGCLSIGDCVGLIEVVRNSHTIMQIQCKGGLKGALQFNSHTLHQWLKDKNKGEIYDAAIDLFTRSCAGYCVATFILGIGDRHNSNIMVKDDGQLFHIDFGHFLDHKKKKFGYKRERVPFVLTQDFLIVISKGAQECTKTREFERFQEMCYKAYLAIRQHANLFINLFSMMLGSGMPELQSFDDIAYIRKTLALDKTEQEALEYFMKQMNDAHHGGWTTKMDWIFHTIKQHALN
T1 sequence (P27986 whole entry partner): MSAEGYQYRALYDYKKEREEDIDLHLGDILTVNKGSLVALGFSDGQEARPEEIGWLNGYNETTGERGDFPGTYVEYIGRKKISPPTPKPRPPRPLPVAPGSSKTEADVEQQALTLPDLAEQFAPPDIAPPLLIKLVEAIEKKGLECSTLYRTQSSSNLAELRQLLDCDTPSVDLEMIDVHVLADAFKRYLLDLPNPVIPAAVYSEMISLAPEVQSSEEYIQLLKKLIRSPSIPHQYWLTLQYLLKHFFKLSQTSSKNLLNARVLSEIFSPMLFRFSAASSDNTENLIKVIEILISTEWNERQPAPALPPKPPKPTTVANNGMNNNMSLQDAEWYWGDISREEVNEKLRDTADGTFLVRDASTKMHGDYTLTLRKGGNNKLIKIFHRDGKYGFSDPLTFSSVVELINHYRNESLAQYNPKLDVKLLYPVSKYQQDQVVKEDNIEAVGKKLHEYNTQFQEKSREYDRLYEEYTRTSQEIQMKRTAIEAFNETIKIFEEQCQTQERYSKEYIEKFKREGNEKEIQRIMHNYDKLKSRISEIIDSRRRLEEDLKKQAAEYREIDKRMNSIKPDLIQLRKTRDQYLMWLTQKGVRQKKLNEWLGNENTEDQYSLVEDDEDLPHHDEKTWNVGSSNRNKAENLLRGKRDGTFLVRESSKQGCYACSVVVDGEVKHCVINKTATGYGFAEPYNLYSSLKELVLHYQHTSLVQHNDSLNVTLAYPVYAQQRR
Procedure: (§1) Co-stimulation of 1938 with pY led to an additive activatory effect for G106V, but not for the N345K and E545K mutants (FIG. 1f/FIG. 22f).
Kinase reactions were performed with ADP-Glo kinase assay kit (Promega Corporation). The enzyme, substrate and compounds were diluted in reaction buffer (20 mM HEPES, 50 mM NaCl, 50 mM KCl, 3 mM MgCl2, 1 mM EGTA, 1 mM TCEP, pH 7.4). Final concentrations of PI3Kα and PI3Kδ used were 25 nM and 50 nM for PI3Kβ. Liposomes (5% brain PI(4,5)P2, 20% brain phosphatidylserine, 45% brain phosphatidylethanolamine, 15% brain phosphatidylcholine, 10% cholesterol, 5% sphingomyelin (Avanti Polar Lipids)) were used at a final concentration of 1 mg/ml. The pY sequence is ESDGG(pY)[…](pY)[…].
For characterisation of the effects of 1938 on in vitro PI3K enzymology, all reactions were performed at room temperature with 384 white-polystyrene plates (Corning #3574). The final DMSO concentration in the assay was between 0.5%-1.8%. The reaction mixture contained 2 μl PI3K enzyme, 2 μl compound and/or pY and 2 μl of liposome substrate mixed with ATP. ATP was used at a final concentration of 200 μM, unless otherwise stated. The enzyme and compounds were pre-incubated for 10 min prior to addition of substrate. […] For enzyme kinetic calculations, data was expressed as velocity (pmol of ADP generated/sec). […]

ATM = molecular target: T2, ATM (Homo sapiens, UniProt Q13315); experiment: ATM kinase assay (Phos-tag gel); conditions: 200 μM 1938
T2 construct: made in house
T2 sequence (Q13315 whole entry, species assumed): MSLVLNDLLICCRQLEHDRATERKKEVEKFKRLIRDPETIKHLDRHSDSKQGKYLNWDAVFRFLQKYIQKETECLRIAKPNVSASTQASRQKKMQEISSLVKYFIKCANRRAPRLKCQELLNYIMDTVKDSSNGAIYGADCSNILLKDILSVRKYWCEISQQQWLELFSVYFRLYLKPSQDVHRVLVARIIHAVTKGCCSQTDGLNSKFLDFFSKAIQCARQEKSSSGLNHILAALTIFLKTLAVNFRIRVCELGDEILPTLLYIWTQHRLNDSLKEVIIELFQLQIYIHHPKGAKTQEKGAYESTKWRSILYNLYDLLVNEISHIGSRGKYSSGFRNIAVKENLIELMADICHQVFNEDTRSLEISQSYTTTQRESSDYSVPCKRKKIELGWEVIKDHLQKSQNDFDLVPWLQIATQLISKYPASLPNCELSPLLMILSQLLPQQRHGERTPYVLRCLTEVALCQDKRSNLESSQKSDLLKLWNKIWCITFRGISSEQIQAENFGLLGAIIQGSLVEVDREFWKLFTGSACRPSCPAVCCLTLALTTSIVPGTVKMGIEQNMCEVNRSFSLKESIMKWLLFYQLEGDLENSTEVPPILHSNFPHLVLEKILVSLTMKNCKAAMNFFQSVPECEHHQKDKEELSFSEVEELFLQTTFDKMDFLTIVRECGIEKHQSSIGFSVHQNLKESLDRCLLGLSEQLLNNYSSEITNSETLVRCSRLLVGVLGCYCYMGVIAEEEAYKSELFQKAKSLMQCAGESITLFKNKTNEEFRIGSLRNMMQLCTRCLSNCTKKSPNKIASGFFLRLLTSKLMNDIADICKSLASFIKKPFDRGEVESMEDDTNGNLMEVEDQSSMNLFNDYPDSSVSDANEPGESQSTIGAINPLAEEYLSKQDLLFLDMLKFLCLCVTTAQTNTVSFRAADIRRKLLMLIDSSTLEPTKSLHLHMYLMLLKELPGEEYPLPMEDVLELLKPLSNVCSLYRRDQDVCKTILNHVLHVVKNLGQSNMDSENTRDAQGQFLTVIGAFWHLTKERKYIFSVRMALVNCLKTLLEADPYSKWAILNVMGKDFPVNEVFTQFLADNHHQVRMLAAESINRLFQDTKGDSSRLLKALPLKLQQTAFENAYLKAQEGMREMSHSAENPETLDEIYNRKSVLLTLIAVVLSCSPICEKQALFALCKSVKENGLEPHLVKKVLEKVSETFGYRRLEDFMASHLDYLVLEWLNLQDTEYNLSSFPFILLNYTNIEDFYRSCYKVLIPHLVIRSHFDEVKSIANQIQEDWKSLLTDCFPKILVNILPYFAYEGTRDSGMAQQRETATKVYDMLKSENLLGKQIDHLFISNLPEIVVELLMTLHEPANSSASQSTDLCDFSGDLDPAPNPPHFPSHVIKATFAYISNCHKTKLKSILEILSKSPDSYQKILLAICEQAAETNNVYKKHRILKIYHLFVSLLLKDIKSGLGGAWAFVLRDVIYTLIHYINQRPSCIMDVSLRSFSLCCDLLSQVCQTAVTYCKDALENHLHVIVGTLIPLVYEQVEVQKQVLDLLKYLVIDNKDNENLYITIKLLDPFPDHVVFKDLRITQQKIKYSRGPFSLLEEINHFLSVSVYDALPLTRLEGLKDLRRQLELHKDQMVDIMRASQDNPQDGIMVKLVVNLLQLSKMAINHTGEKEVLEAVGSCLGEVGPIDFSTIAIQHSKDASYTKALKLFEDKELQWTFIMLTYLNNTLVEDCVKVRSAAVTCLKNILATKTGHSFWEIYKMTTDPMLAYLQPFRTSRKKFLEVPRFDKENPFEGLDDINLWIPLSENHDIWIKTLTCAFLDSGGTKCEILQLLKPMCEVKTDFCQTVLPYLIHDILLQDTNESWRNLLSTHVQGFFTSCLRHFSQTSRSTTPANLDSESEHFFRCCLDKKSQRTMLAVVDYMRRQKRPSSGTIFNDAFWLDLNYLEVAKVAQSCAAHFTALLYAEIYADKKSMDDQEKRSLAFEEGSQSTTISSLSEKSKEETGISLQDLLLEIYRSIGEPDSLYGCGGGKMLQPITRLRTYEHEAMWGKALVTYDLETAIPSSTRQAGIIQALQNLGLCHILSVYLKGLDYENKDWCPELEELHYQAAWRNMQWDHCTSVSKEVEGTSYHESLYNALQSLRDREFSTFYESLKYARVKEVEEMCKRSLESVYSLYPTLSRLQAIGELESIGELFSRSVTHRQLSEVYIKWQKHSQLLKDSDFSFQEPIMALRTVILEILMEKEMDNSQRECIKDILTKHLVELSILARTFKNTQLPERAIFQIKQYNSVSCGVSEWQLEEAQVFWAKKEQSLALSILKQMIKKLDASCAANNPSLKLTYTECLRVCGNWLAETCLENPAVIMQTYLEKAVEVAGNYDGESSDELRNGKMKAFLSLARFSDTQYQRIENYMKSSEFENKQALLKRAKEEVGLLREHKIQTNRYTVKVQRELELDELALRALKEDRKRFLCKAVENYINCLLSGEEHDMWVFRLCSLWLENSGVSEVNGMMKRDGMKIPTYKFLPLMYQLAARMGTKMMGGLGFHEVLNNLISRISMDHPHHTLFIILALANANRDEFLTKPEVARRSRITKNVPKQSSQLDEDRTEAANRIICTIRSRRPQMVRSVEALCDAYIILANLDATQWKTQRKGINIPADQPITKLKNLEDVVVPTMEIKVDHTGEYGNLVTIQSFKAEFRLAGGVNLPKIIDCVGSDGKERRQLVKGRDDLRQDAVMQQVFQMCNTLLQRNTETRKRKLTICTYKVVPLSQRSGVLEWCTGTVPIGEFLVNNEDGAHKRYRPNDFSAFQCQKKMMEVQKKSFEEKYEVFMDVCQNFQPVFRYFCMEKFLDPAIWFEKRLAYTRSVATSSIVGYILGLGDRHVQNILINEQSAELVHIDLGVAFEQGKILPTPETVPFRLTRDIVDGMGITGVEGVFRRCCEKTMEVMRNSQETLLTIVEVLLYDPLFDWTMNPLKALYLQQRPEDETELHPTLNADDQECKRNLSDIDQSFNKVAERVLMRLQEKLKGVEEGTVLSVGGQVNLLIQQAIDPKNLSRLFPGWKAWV
Procedure: 133 protein kinases and 7 lipid kinases were counterscreened, with […] used at 1 μM, using the Adapta, Lantha and Z-LYTE assays (SelectScreen Kinase Profiling Service; Thermofisher—experimental details of these assays can be found here: https://www.thermofisher.com/uk/en/home/industrial/pharma-biopharma/drug-discovery-development/target-and-lead-identification-and-validation/kinasebiology/kinase-activity-assays.html. The tree representation in KinMap generated courtesy of Cell Signaling Technology, Inc. (www.cellsignal.com). mTORC1 (mTOR/RAPTOR/LST8) protein complex and ATM kinase and substrates were produced as previously described (Anandapadamanaban, M. et al. Science (New York, NY 366, 203-210 (2019); Baretic, D. et al. Sci Adv 3, e1700933 (2017). Screening of 1938 was conducted using SuperSep Phos-Tag 50 μmol/l 100×100×6.6 mm 17-well (192-18001/199-18011) gels. For ATM assays, 100 nM ATM was incubated for 30 min at 30° C. with 5 μM GST-p53 and 1 mM ATP, in the absence or presence of 200 μM 1938 in ATM Kinase Buffer (50 mM HEPES pH 7.5, 100 mM NaCl, 10% glycerol, 2 mM […], 5 mM MgCl2). […] Gels were then stained using InstantBlue™ Coomassie stain, and then quantified using BioRad Image Lab Software. […]

G106V mutant of p110α = molecular target: T3, G106V mutant of p110α (Homo sapiens, UniProt P42336, G106V); experiment: FRET membrane binding, oncogenic mutant G106V
T3 construct: Full-length p110α was expressed in a complex with full-length p85α (for biochemistry and HDX-MS); 6xHis followed by TEV protease site (N); made in house; host or cells: Spodoptera frugiperda Sf9 (plasmid JB35)
T3 sequence (P42336 whole entry G106V): as the sequence (P42336 whole entry E545K) above, with G106V, K545E counted along it
T3 sequence (P27986 whole entry partner): as the sequence (P27986 whole entry partner) above
Procedure: as §1
Membrane binding assays were performed as previously published (Burke, J. E. et al. Proc Natl Acad Sci USA 109, 15259-15264 (2012)). Briefly, liposomes were prepared with 5% (w/v) brain PtdIns(4,5)P2, 20% brain phosphatidylserine, 35% brain phosphatidylethanolamine, 15% brain phosphatidylcholine, 10% cholesterol, 5% sphingomyelin, and 10% dansyl-phosphatidylserine (Avanti Polar Lipids). PI3Kα was used at a final concentration of 0.5 μM. Protein solutions were preincubated with 10 μM pY or compounds for 10 min before addition of liposomes. Liposomes were used at a final concentration of 50 μg/ml. The reaction mixture contained 5 μl enzyme, 2 μl compound and 3 μl liposomes, all diluted in 30 mM HEPES, 50 mM NaCl, pH 7.4. The reaction was allowed to proceed for 10 min at room temperature in 384 black-polystyrene plates (Corning #3544) on an orbital shaker at 200 rpm. FRET signals were measured using PHERAStar (BMG) with a 280 nm excitation filter with 350 nm and 520 nm emission filters to measure Dansyl-PS FRET emissions, respectively. FRET signal shown as I-I0, where I is the intensity at 520 nm, and 10 is the intensity at 520 nm for the solution in the absence of protein.

activation of E545K mutant (E545K mutant of p110α): further activated | activity of ATM (ATM): did not affect | membrane binding of G106V (G106V mutant of p110α): did not increase
Compound: CCN1CCN(c2ccc(Nc3cc(Nc4cccc5c4N(C(C)=O)CC5)ccn3)cc2)CC1 [Example 1938]
